For 2 molecules, disease control, inhibition of growth and pest or weed control results are on record in patent US20120316184A1, “NOVEL MICROBICIDES” (SYNGENTA CROP PROTECTION LLC, priority 2010, published 2012).

One experiment deals with Phytophthora infestans. Format: in vivo. Particulars: 200 ppm; tomato leaf disks, inoculated 1 day after application, assessed 5-7 days after application, vs untreated.
Experiment [1] deals with Monographella nivalis (Microdochium nivale). As to the kind of experiment: Fungicidal activity against Monographella nivalis (Microdochium nivale) / liquid culture (foot rot cereals). Format: cell-based. The following applies: liquid culture (PDB), inhibition of growth determined photometrically 4-5 days after application, read-out: disease control. As for the experimental part:
Fungicidal Activity Against Monographella nivalis (Microdochium nivale)/Liquid Culture (Foot Rot Cereals) Conidia of the fungus from cryogenic storage were directly mixed into nutrient broth (PDB potato dextrose broth). After placing a (DMSO) solution of test compound into a microtiter plate (96-well format), the nutrient broth containing the fungal spores was added. The test plates were incubated at 24° C. and the inhibition of growth was determined photometrically 4-5 days after application.

Experiment [2] has as its system Phaeosphaeria nodorum (Septoria nodorum). As to the kind of experiment: Fungicidal activity against Phaeosphaeria nodorum (Septoria nodorum) / wheat / leaf disc preventative (glume blotch). Particulars: Parastagonospora nodorum, foliar, wheat leaf segments cv. Kanzler, inoculated 2 days after application, assessed 5-7 days after application, vs untreated, read-out: disease control. It counts as in vivo. As for the experimental part:
Fungicidal Activity Against Phaeosphaeria nodorum (Septoria nodorum)/Wheat/Leaf Disc Preventative (Glume Blotch) Wheat leaf segments cv. Kanzler were placed on agar in a multiwell plate (24-well format) and sprayed with the formulated test compound diluted in water. The leaf disks were inoculated with a spore suspension of the fungus 2 days after application. The inoculated test leaf disks were incubated at 20° C. and 75% rh under a light regime of 12 h light/12 h darkness in a climate cabinet and the activity of a compound was assessed as percent disease control compared to untreated when an appropriate level of disease damage appears in untreated check leaf disks (5-7 days after application).

Experiment [3] concerns Mycosphaerella graminicola (Septoria tritici). As to the kind of experiment: Fungicidal activity against Mycosphaerella graminicola (Septoria tritici) / liquid culture (Septoria blotch). It counts as cell-based. Particulars: Zymoseptoria tritici, liquid culture (PDB), inhibition of growth determined photometrically 4-5 days after application, read-out: disease control. The protocol: Fungicidal Activity Against Mycosphaerella graminicola (Septoria tritici)/Liquid Culture (Septoria Blotch) Conidia of the fungus from cryogenic storage were directly mixed into nutrient broth (PDB potato dextrose broth). After placing a (DMSO) solution of test compound into a microtiter plate (96-well format), the nutrient broth containing the fungal spores was added. The test plates were incubated at 24° C. and the inhibition of growth was determined photometrically 4-5 days after application.

Experiment [4] deals with Puccinia recondita f. sp. tritici. As to the kind of experiment: Fungicidal activity against Puccinia recondita f. sp. tritici / wheat / leaf disc preventative (brown rust). Format: in vivo. The following applies: foliar, wheat leaf segments cv. Kanzler, inoculated 1 day after application, assessed 7-9 days after application, vs untreated, read-out: disease control. The protocol:
Fungicidal Activity Against Puccinia recondita f. sp. tritici/Wheat/Leaf Disc Preventative (Brown Rust) Wheat leaf segments cv. Kanzler were placed on agar in multiwell plates (24-well format) and sprayed with the formulated test compound diluted in water. The leaf disks were inoculated with a spore suspension of the fungus 1 day after application. The inoculated leaf segments were incubated at 19° C. and 75% rh under a light regime of 12 h light/12 h darkness in a climate cabinet and the activity of a compound was assessed as percent disease control compared to untreated when an appropriate level of disease damage appears in untreated check leaf segments (7-9 days after application).

For another experiment, the system named is Pyrenophora teres. As to the kind of experiment: Fungicidal activity against Pyrenophora teres / barley / leaf disc preventative (net blotch). Format: in vivo. Particulars: foliar, barley leaf segments cv. Hasso, inoculated 2 days after application, assessed 5-7 days after application, vs untreated, read-out: disease control. The protocol:
Fungicidal Activity Against Pyrenophora teres/Barley/Leaf Disc Preventative (Net Blotch) Barley leaf segments cv. Hasso were placed on agar in a multiwell plate (24-well format) and sprayed with the formulated test compound diluted in water. The leaf […] inoculated with a spore suspension of the fungus 2 days after application. The inoculated leaf segments were incubated at 20° C. and 65% rh under a light regime of 12 h light/12 h darkness in a climate cabinet and the activity of a compound was assessed as disease control compared to untreated when an appropriate level of disease damage appears in untreated check leaf segments (5-7 days after application).

The subject of a further experiment is Gaeumannomyces graminis. As to the kind of experiment: Fungicidal activity against Gaeumannomyces graminis / liquid culture (take-all of cereals). It counts as cell-based. Particulars: liquid culture (PDB), inhibition of growth determined photometrically 4-5 days after application, read-out: disease control. As for the experimental part:
Fungicidal Activity Against Gaeumannomyces graminis/Liquid Culture (Take-all of Cereals) Mycelial fragments of the fungus from cryogenic storage were directly mixed into nutrient broth (PDB potato dextrose broth). After placing a (DMSO) solution of test compound into a microtiter plate (96-well format), the nutrient broth containing the fungal spores is added. The test plates were incubated at 24° C. and the inhibition of growth was determined photometrically 4-5 days after application.

Experiment [5] deals with Mycosphaerella arachidis (Cercospora arachidicola). As to the kind of experiment: Fungicidal activity against Mycosphaerella arachidis (Cercospora arachidicola) / liquid culture (early leaf spot). It counts as cell-based. Particulars: liquid culture (PDB), inhibition of growth determined photometrically 4-5 days after application, read-out: disease control. The protocol: Fungicidal Activity Against Mycosphaerella arachidis (Cercospora arachidicola)/Liquid Culture (Early Leaf Spot) Conidia of the fungus from cryogenic storage were directly mixed into nutrient broth (PDB potato dextrose broth). After placing a (DMSO) solution of test compound into a microtiter plate (96-well format), the nutrient broth containing the fungal spores was added. The test plates were incubated at 24° C. and the inhibition of growth was determined photometrically 4-5 days after application.

Experiment [6] deals with Botryotinia fuckeliana (Botrytis cinerea). As to the kind of experiment: Fungicidal activity against Botryotinia fuckeliana (Botrytis cinerea) / liquid culture (gray mould). Format: cell-based. The following applies: liquid culture (Vogels broth), inhibition of growth determined photometrically 3-4 days after application, read-out: disease control. The protocol: Fungicidal Activity Against Botryotinia fuckeliana (Botrytis cinerea)/Liquid Culture (Gray Mould) Conidia of the fungus from cryogenic storage were directly mixed into nutrient broth (Vogels broth). After placing a (DMSO) solution of test compound into a microtiter plate (96-well format), the nutrient broth containing the fungal spores was added. The test plates were incubated at 24° C. and the inhibition of growth was determined photometrically 3-4 days after application.

Experiment [7] deals with Glomerella lagenarium (Colletotrichum lagenarium). As to the kind of experiment: Fungicidal activity against Glomerella lagenarium (Colletotrichum lagenarium) / liquid culture (anthracnose). It counts as cell-based. The following applies: Colletotrichum orbiculare, liquid culture (PDB), inhibition of growth measured photometrically 3-4 days after application, read-out: disease control. The protocol:
Fungicidal Activity Against Glomerella lagenarium (Colletotrichum lagenarium)/Liquid Culture (Anthracnose) Conidia of the fungus from cryogenic storage were directly mixed into nutrient broth (PDB potato dextrose broth). After placing a (DMSO) solution of test compound into a microtiter plate (96-well format), the nutrient broth containing the fungal spores was added. The test plates were incubated at 24° C. and the inhibition of growth was measured photometrically 3-4 days after application.

Structures are written as SMILES.

Consider `c1ccc(Cc2cccc(-c3ncc4ccsc4n3)n2)cc1` [Compound T3.1.31, 2-(6-benzyl-pyridin-2-yl)-thieno[2,3-d]pyrimidine], for which, in the experiment on Phytophthora infestans, the disease control result is given as “at least 80%”.

`c1ccc(Cc2cccc(-c3ncc4ccsc4n3)n2)cc1` [Compound T15.16]: the inhibition of growth at 200 ppm (in experiment [1]; in experiment [3]; in the experiment on Gaeumannomyces graminis; in experiment [5]; in experiment [6]; in experiment [7]) was no less than 80% each time. For the same molecule, the pest or weed control at 200 ppm (in experiment [2]; in experiment [4]; in the experiment on Pyrenophora teres) was no less than 80% throughout.
